According to US20250099420A1, “SMALL MOLECULE MODULATORS OF GPR139 COMPLEX” (University of Florida Research Foundation, Incorporated, priority 2022, published 2025):
Where two headings read alike, the source gives them in different places.

What was measured:
[1] = molecular target: T1, GPR139 (Homo sapiens, UniProt Q6DWJ6); assay: GPR139 Agonist titration / agonist counterscreen assay (calcium detection, HEK-GPR139 cells); assay type: cell-based; design: expressed in transfected cells; host or cells: HEK Aequorin cells, Maxcyte transient transfection; conditions: GPR139 Agonist Activity; for EC50: read-out: EC50; for Averaged Max % Response (±St. Dev.): activity relative to known control
T1 sequence (Q6DWJ6 1-353): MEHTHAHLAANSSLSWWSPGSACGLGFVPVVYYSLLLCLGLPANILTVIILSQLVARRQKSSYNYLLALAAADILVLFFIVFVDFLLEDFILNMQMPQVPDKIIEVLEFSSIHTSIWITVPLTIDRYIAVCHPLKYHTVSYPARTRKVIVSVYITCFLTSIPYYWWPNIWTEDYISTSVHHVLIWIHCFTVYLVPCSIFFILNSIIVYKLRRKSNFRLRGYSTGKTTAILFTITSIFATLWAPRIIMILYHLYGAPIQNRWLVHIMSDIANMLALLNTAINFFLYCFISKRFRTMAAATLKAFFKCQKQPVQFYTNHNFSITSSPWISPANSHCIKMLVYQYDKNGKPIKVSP
Description: GPR activity was assessed using a calcium detection assay. […] Negative control samples were treated with DMSO. […] Intracellular calcium was measured using Calcium 5.

[2] = system: parental HEK cells; assay: HEK parental Agonist Counterscreen Assay (non-transfected cells); assay type: cell-based; conditions: for Averaged Max % Response (±St. Dev.): activity relative to known control
Source text: The high control for the agonist counterscreen was Forskolin not acetylcholine.

[3] = Homo sapiens, HEK293, HEK Agonist Activity section of Table 4 (parental HEK counterscreen)
[4] = values printed in E-notation without unit
[5] = Homo sapiens, HEK293, HEK Agonist Activity, parental non-transfected HEK cells
[6] = HEK Agonist Activity section of Table 4 (parental HEK counterscreen)

Row | Efficiency Ligand [1] | Hill Slope [1] | Lipophilic Efficiency (logD) [1] | Lipophilic Efficiency (logP) [1] | EC50 ([1]; HEK-GPR139 cells) | Averaged Max % Response (±St. Dev.) [1] | Lipophilic Efficiency (logD) ([2]; HEK Agonist Activity section) | Lipophilic Efficiency (logP) ([2]; HEK Agonist Activity section) | Lipophilic Efficiency (logD) ([1]; based on logD) | Lipophilic Efficiency (logP) ([1]; based on logP) | Hill Slope ([1]; fitted dose-response curve) | Efficiency Ligand ([1]; ligand efficiency) | EC50 [1, 4] | Lipophilic Efficiency (logD) ([2]; HEK Agonist Activity) | Lipophilic Efficiency (logP) ([2]; HEK Agonist Activity) | Structure (SMILES) | Averaged Max % Response (±St. Dev.) ([2]; HEK Agonist Activity section) | EC50 [2, 3] | Averaged Max % Response (±St. Dev.) ([2]; HEK Agonist Activity) | EC50 [2, 5] | EC50 [2, 6]
1 | 0.54 | 0.99 | 3.66 | 3.24 | 743 nM | 74.67 ± 0.55% | 2.37 | 1.95 |  |  |  |  |  |  |  | Cc1ccc(Nc2cn[nH]c(=S)n2)c(C)c1 [SR-01000013346] | −4.67 ± 3.34% | > 14600 nM |  |  | 
2 |  |  |  |  |  | 100.37 ± 4.50% | 1.71 | 1.66 | 3.80 | 3.75 | 0.87 | 0.39 | 114 nM |  |  | CC(Oc1ccc(Cl)cc1Cl)C(=O)NNC(=O)COc1ccccc1 (stereo not shown) [SR-01000370374] | 4.76 ± 6.67% | > 14100 nM |  |  | 
3 | 0.45 | 1.89 | 2.40 | 2.36 |  | 90.10 ± 8.93% | 1.03 | 0.98 |  |  |  |  |  |  |  | C=C1N=C(NC2CCCCCC2)c2ccccc2N1 [SR-01000565308] | 25.00 ± 13.25% | > 17500 nM |  |  | 
4 |  |  |  |  |  | 81.24 ± 9.74% |  |  | 4.30 | 4.30 | 2.01 | 0.37 | 23.7 nM | 1.53 | 1.53 | COc1ccc(CCNC(=O)Nc2ccc3c(c2)CCCN3C(=O)C2CC2)cc1 [SR-01000923125] |  |  | 32.19 ± 4.93% | > 14100 nM | 
5 |  |  |  |  |  | 129.99 ± 9.49% |  |  | 2.68 | 2.68 | 1.13 | 0.52 | 39.6 nM | 0.08 | 0.08 | Cc1cccc(Cc2cnc(NC(=O)CC(C)C)s2)c1 [SR-01000071221] |  |  | 19.19 ± 7.12% | > 15600 nM | 
6 | 0.29 | 0.87 | 2.52 | 2.52 | 1000 nM | 94.94 ± 8.96% | 1.39 | 1.39 |  |  |  |  |  |  |  | CCOc1ccccc1NC(=O)CN1C(=O)NC(C)(c2ccc(Cl)cc2Cl)C1=O (stereo not shown) [SR-01000072797] | 4.41 ± 6.50% |  |  |  | > 14200 nM
7 | 0.30 | 0.69 | 4.01 | 4.01 | 1400 nM | 75.38 ± 12.05% | 3.01 | 3.01 |  |  |  |  |  |  |  | COC(=O)C(CCSC)NC(=O)C1CC(Cc2ccc3c(c2)OCO3)=NO1 (stereo not shown) [SR-01000193756] | −12.55 ± 2.76% |  |  |  | > 14100 nM
8 |  |  |  |  |  | 90.02 ± 17.44% | 1.33 | 1.32 | 3.63 | 3.62 | 0.77 | 0.45 | 77.1 nM |  |  | CC(C)(C)OC(=O)NNC(=O)COCc1ccc(Cl)c(Cl)c1 [SR-01000074687] | 17.98 ± 4.87% | > 15400 nM |  |  | 
9 |  |  |  |  |  | 107.86 ± 14.78% |  |  | 5.70 | 5.70 | 0.48 | 0.38 | 25.6 nM | 2.96 | 2.96 | COc1ccc(C2(C)NC(=O)C(CC(=O)NCCc3ccccc3)C2=O)cc1 (stereo not shown) [SR-01000918721] |  |  | 9.27 ± 15.15% | > 14100 nM | 
10 |  |  |  |  |  | 123.62 ± 30.65% | 2.10 | 2.10 | 4.22 | 4.22 | 0.32 | 0.36 | 106 nM |  |  | CC(C(=O)NCCC1=CCCCC1)n1c(=O)c2cccn2c2ccccc21 (stereo not shown) [SR-01000142419] | −9.79 ± 12.86% | > 14100 nM |  |  | 
11 | 0.36 | 0.97 | 2.40 | 2.39 | 1200 nM | 72.38 ± 5.96% | 1.31 | 1.30 |  |  |  |  |  |  |  | Cc1cc(Br)ccc1OCC(=O)NNC(=O)c1ccccc1C [SR-01000318521] | 6.11 ± 9.12% | > 14100 nM |  |  | 
12 |  |  |  |  |  | 95.23 ± 13.49% | 1.70 | 1.69 | 3.95 | 3.94 | 1.23 | 0.32 |  |  |  | CCCc1ccccc1C1=CCC(NC(=O)Cn2ncc3c2-c2ccccc2CC3)=C1 [SR-01000135037] | −6.83 ± 12.52% | > 14100 nM |  |  | 
13 | 0.56 | 0.71 | 3.32 | 3.32 | 407 nM | 80.08 ± 5.83% | 1.78 | 1.78 |  |  |  |  |  |  |  | NC1=NC(=O)/C(=C\c2ccc(Cl)cc2Cl)S1 [SR-01000310833] | 13.95 ± 0.93% |  |  |  | > 14100 nM
14 | 0.28 | 1.91 | 4.95 | 3.13 | 4100 nM | 57.17 ± 6.17% | 4.41 | 2.59 |  |  |  |  |  |  |  | CCCCCCC(=O)NNC(=O)c1c(O)c2ccccc2n(CCC)c1=O [SR-01000360839] | 0.18 ± 6.80% |  |  |  | > 14100 nM
15 | 0.30 | 0.53 | 2.60 | 2.60 |  | 116.44 ± 14.37% | 1.36 | 1.36 |  |  |  |  |  |  |  | CC(CCC(=O)C12CC3CC(CC(C3)C1)C2)CCc1ccc2ccccc2c1 (stereo not shown) [SR-01000359546] | 3.46 ± 3.80% | > 14100 nM |  |  | 
16 |  |  |  |  |  | 103.42 ± 7.86% |  |  | 6.10 | 5.03 | 0.54 | 0.35 | 9 nM | 2.91 | 1.83 | CN1CCC(Oc2cc(-c3cn[nH]c3)ccc2NC(=O)C2COc3ccc(F)cc3C2)C1 (stereo not shown) [SR-00000006339] |  |  | 5.16 ± 8.02% | > 14100 nM | 
